Read-outs that look alike come from different tables or passages of the source.
Target: T1, F508delCFTR (Homo sapiens, UniProt P13569, DEL508-508)
T1 construct: expressed in transfected cells; host or cells: CFBE41o- human lung-derived epithelial cells (CFBE4lo-F508delCFTR-HRP), doxycycline-inducible
Assay: Cell Surface Expression-Horse Radish Peroxidase (CSE-HRP) Assay;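 as to Maximum % activity (with co-corrector): co-corrector and positive control are both the same reference corrector at 2 µM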;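 as to Maximum % activity (without co-corrector): percent of the 2 µM on-plate positive control corrector response above DMSO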
Type: cell-based
Details: for Maximum % activity (with co-corrector): with co-corrector (2 μM); for Maximum % activity (with co-corrector) / Emax: maximum at any tested concentration, normalized to on-plate positive control; for Emax: without co-corrector, read-out: Maximum % activity (without co-corrector)

[1] = test compound without co-corrector, read-out: EC50 (without co-corrector)
[2] = with co-corrector (2 μM of 3-[(2R,4R)-4-({[1-(2,2-difluoro-1,3-benzodioxol-5-yl)cyclopropyl]carbonyl}amino)-7-methoxy-3,4-dihydro-2H-chromen-2-yl]benzoic acid), read-out: EC50 (with co-corrector)

T1 sequence (P13569 with tags, fused parts or gaps DEL508-508): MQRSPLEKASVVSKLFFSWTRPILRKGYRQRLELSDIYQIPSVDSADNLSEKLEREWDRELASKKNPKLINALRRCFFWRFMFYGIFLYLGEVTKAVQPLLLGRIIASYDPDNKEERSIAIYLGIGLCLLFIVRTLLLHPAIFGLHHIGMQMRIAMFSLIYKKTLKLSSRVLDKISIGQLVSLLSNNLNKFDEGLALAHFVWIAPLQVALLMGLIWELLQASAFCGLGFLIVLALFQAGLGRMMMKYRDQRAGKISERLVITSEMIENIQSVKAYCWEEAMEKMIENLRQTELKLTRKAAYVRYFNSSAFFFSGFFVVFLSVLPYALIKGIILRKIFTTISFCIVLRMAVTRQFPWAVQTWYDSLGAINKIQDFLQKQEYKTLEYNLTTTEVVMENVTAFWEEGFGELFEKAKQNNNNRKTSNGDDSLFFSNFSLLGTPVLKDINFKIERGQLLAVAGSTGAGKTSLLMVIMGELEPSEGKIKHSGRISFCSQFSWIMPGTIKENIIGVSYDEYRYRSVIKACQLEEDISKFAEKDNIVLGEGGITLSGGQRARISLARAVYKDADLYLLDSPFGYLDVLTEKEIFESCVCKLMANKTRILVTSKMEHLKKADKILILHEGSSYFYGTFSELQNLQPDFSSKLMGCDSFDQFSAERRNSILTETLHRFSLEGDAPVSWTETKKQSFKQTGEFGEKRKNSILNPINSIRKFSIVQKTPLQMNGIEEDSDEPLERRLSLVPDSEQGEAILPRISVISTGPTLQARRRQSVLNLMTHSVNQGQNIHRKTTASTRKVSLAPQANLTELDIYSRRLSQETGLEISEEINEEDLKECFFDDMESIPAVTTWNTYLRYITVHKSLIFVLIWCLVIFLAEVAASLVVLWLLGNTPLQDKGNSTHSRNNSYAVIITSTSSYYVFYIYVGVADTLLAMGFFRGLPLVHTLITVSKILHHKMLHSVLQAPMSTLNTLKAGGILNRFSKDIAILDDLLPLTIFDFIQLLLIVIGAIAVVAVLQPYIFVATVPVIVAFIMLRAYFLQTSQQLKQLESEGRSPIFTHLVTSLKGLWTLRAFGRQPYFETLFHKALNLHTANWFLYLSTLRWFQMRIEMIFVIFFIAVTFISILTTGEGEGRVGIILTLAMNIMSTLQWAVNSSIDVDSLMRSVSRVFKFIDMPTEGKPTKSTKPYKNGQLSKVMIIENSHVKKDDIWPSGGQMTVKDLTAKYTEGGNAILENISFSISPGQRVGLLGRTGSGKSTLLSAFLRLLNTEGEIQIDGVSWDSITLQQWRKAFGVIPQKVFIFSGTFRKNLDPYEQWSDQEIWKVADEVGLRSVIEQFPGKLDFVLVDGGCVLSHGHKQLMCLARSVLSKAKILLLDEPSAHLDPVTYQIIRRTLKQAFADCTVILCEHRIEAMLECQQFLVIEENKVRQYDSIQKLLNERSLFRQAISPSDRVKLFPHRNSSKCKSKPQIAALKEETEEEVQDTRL

| Compound | EC50 [1] [nM] | EC50 [2] [nM] | Maximum % activity (with co-corrector) | Emax [%] |
| --- | --- | --- | --- | --- |
| COc1ccc(C2(C)CCC2)cc1CN[C@H]1[C@H](C(C)(C)C)[C@@H](C(=O)O)N(C(=O)[C@@H]2CCCCO2)[C@H]1c1cccnc1N(C)C [Example 60, (2S,3S,4S,5S)-3-tert-butyl-5-[2-(dimethylamino)pyridin-3-yl]-4-({[2-methoxy-5-(1-methylcyclobutyl)phenyl]methyl}amino)-1-[(2S)-oxane-2-carbonyl]pyrrolidine-2-carboxylic acid] | 1000 to 10000 | 1000 to 10000 | +++ (≥350) | > 200 |
| COc1ccc(C(C)(C)C)cc1CN[C@H]1[C@H](C(C)(C)C)[C@@H](C(=O)O)N(C(=O)OC(C)C)[C@H]1c1ccccc1C(C)C [Example 61, (2S,3S,4S,5S)-3-tert-butyl-4-{[(5-tert-butyl-2-methoxyphenyl)methyl]amino}-1-{[(propan-2-yl)oxy]carbonyl}-5-[2-(propan-2-yl)phenyl]pyrrolidine-2-carboxylic acid] | < 1000 | < 1000 | +++ (≥350) | > 200 |
| CC(C)(C)[C@H]1[C@H](NCC2(c3cccc(Cl)c3)CCOCC2)[C@H](c2ccccc2)N(C(=O)C2CCCCC2)[C@@H]1C(=O)O [Example 63, (2S,3S,4S,5S)-3-tert-butyl-4-({[4-(3-chlorophenyl)oxan-4-yl]methyl}amino)-1-(cyclohexanecarbonyl)-5-phenylpyrrolidine-2-carboxylic acid] | 1000 to 10000 | 1000 to 10000 | +++ (≥350) | < 100 |
| COc1ccc(C23CC(C2)C3)cc1CN[C@H]1[C@H](C(C)(C)C)[C@@H](C(=O)O)N(C(=O)OC(C)C)[C@H]1c1cccnc1N(C)C [Example 64, (2S,3S,4S,5S)-4-({[5-(bicyclo[1.1.1]pentan-1-yl)-2-methoxyphenyl]methyl}amino)-3-tert-butyl-5-[2-(dimethylamino)pyridin-3-yl]-1-{[(propan-2-yl)oxy]carbonyl}pyrrolidine-2-carboxylic acid] | 1000 to 10000 | 1000 to 10000 | +++ (≥350) | > 200 |
| COc1cc(C(F)(F)F)ccc1CN[C@H]1[C@H](C(C)(C)C)[C@@H](C(=O)O)N(C(=O)C2C3CCCC32)[C@H]1c1ccccc1 (stereo partly drawn) [Example 65, (2S,3S,4S,5S)-1-(bicyclo[3.1.0]hexane-6-carbonyl)-3-tert-butyl-4-({[2-methoxy-4-(trifluoromethyl)phenyl]methyl}amino)-5-phenylpyrrolidine-2-carboxylic acid] | 1000 to 10000 | 1000 to 10000 | +++ (≥350) | 100 to 200 |
| COc1ccc(C(C)(C)C)cc1CN[C@H]1[C@H](C(C)(C)C)[C@@H](C(=O)O)N(C(=O)OC(C)C)[C@H]1c1cccnc1N(C)C [Example 66, (2S,3S,4S,5S)-3-tert-butyl-4-{[(5-tert-butyl-2-methoxyphenyl)methyl]amino}-5-[2-(dimethylamino)pyridin-3-yl]-1-{[(propan-2-yl)oxy]carbonyl}pyrrolidine-2-carboxylic acid] | 1000 to 10000 | 1000 to 10000 | +++ (≥350) | 100 to 200 |
| COc1ccc(C23CC(C2)C3)cc1CN[C@H]1[C@H](C(C)(C)C)[C@@H](C(=O)O)N(C(=O)[C@@H]2CCCC(F)(F)C2)[C@H]1c1ccccc1 [Example 67, (2S,3S,4S,5S)-4-({[5-(bicyclo[1.1.1]pentan-1-yl)-2-methoxyphenyl]methyl}amino)-3-tert-butyl-1-[(1R)-3,3-difluorocyclohexane-1-carbonyl]-5-phenylpyrrolidine-2-carboxylic acid] | < 1000 | < 1000 | +++ (≥350) | > 200 |
| COc1ncc(C2CCC2)cc1CN[C@H]1[C@H](C(C)(C)C)[C@@H](C(=O)O)N(C(=O)OC(C)C)[C@H]1c1ccccc1C(C)C [Example 68, (2S,3S,4S,5S)-3-tert-butyl-4-{[(5-cyclobutyl-2-methoxypyridin-3-yl)methyl]amino}-1-{[(propan-2-yl)oxy]carbonyl}-5-[2-(propan-2-yl)phenyl]pyrrolidine-2-carboxylic acid] | 1000 to 10000 | < 1000 | +++ (≥350) | > 200 |
| COc1ncc(C2CCC2)cc1CN[C@H]1[C@H](C(C)(C)C)[C@@H](C(=O)O)N(C(=O)[C@@H]2CCCC(F)(F)C2)[C@H]1c1ccccc1 [Example 69, (2S,3S,4S,5S)-3-tert-butyl-4-{[(5-cyclobutyl-2-methoxypyridin-3-yl)methyl]amino}-1-[(1R)-3,3-difluorocyclohexane-1-carbonyl]-5-phenylpyrrolidine-2-carboxylic acid] | < 1000 | < 1000 | +++ (≥350) | > 200 |
| COc1nc(C(C)(C)C)ccc1CN[C@H]1[C@H](C23CC(C2)C3)[C@@H](C(=O)O)N(C(=O)OC(C)C)[C@H]1c1ccccc1 [Example 70, (2S,3S,4S,5S)-3-(bicyclo[1.1.1]pentan-1-yl)-4-{[(6-tert-butyl-2-methoxypyridin-3-yl)methyl]amino}-5-phenyl-1-{[(propan-2-yl)oxy]carbonyl}pyrrolidine-2-carboxylic acid] | 1000 to 10000 | 1000 to 10000 | +++ (≥350) | 100 to 200 |
| COc1ccc(C(C)(C)C)cc1CN[C@H]1[C@H](C23CC(C2)C3)[C@@H](C(=O)O)N(C(=O)OC(C)C)[C@H]1c1cccnc1N(C)C [Example 71, (2S,3S,4S,5S)-3-(bicyclo[1.1.1]pentan-1-yl)-4-{[(5-tert-butyl-2-methoxyphenyl)methyl]amino}-5-[2-(dimethylamino)pyridin-3-yl]-1-{[(propan-2-yl)oxy]carbonyl}pyrrolidine-2-carboxylic acid] | 1000 to 10000 | 1000 to 10000 | +++ (≥350) | > 200 |
| COc1ncc(C2CCC2)cc1CN[C@H]1[C@H](C(C)(C)C)[C@@H](C(=O)O)N(C(=O)[C@H]2CCCCO2)[C@H]1c1ccccc1C(C)C [Example 72, (2S,3S,4S,5S)-3-tert-butyl-4-{[(5-cyclobutyl-2-methoxypyridin-3-yl)methyl]amino}-1-[(2R)-oxane-2-carbonyl]-5-[2-(propan-2-yl)phenyl]pyrrolidine-2-carboxylic acid] | 1000 to 10000 | < 1000 | +++ (≥350) | > 200 |
| COc1ncc(C2CCC2)cc1CN[C@H]1[C@H](C(C)(C)C)[C@@H](C(=O)O)N(C(=O)[C@@H]2CCCCO2)[C@H]1c1ccccc1C(C)C [Example 73, (2S,3S,4S,5S)-3-tert-butyl-4-{[(5-cyclobutyl-2-methoxypyridin-3-yl)methyl]amino}-1-[(2S)-oxane-2-carbonyl]-5-[2-(propan-2-yl)phenyl]pyrrolidine-2-carboxylic acid] | < 1000 | < 1000 | +++ (≥350) | > 200 |
| COc1cc(C(F)(F)F)ccc1CN[C@H]1[C@H](C(C)(C)C)[C@@H](C(=O)O)N(C(=O)[C@@H]2CCCC(F)(F)C2)[C@H]1c1ccccc1 [Example 75, (2S,3S,4S,5S)-3-tert-butyl-1-[(1R)-3,3-difluorocyclohexane-1-carbonyl]-4-({[2-methoxy-4-(trifluoromethyl)phenyl]methyl}amino)-5-phenylpyrrolidine-2-carboxylic acid] | 1000 to 10000 | < 1000 | +++ (≥350) | > 200 |
| COc1ccc(C(C)(C)C)cc1CN[C@H]1[C@H](C23CC(C2)C3)[C@@H](C(=O)O)N(C(=O)OC(C)C)[C@H]1c1cccnc1OC [Example 76, (2S,3S,4S,5S)-3-(bicyclo[1.1.1]pentan-1-yl)-4-{[(5-tert-butyl-2-methoxyphenyl)methyl]amino}-5-(2-methoxypyridin-3-yl)-1-{[(propan-2-yl)oxy]carbonyl}pyrrolidine-2-carboxylic acid] | 1000 to 10000 | 1000 to 10000 | +++ (≥350) | 100 to 200 |
| COc1ncc(C(F)(F)F)cc1CN[C@H]1[C@H](C(C)(C)C)[C@@H](C(=O)O)N(C(=O)OC(C)C)[C@H]1c1ccccc1C(C)C [Example 77, (2S,3S,4S,5S)-3-tert-butyl-4-({[2-methoxy-5-(trifluoromethyl)pyridin-3-yl]methyl}amino)-1-{[(propan-2-yl)oxy]carbonyl}-5-[2-(propan-2-yl)phenyl]pyrrolidine-2-carboxylic acid] | 1000 to 10000 | 1000 to 10000 | +++ (≥350) | > 200 |
| COc1ccc(C(F)(F)F)cc1CN[C@H]1[C@H](C(C)(C)C)[C@@H](C(=O)O)N(C(=O)OC(C)C)[C@H]1c1cccnc1OC(C)C [Example 78, (2S,3S,4S,5S)-3-tert-butyl-4-({[2-methoxy-5-(trifluoromethyl)phenyl]methyl}amino)-1-{[(propan-2-yl)oxy]carbonyl}-5-{2-[(propan-2-yl)oxy]pyridin-3-yl}pyrrolidine-2-carboxylic acid] | 1000 to 10000 | 1000 to 10000 | +++ (≥350) | > 200 |
| COc1ncc(C(F)(F)F)cc1CN[C@H]1[C@H](C(C)(C)C)[C@@H](C(=O)O)N(C(=O)OC(C)C)[C@H]1c1cccnc1OC(C)C [Example 79, (2S,3S,4S,5S)-3-tert-butyl-4-({[2-methoxy-5-(trifluoromethyl)pyridin-3-yl]methyl}amino)-1-{[(propan-2-yl)oxy]carbonyl}-5-{2-[(propan-2-yl)oxy]pyridin-3-yl}pyrrolidine-2-carboxylic acid] | 1000 to 10000 | 1000 to 10000 | +++ (≥350) | > 200 |
